Assay: Baseline dynamic PET scan of healthy baboon brain
Type: in vivo
Details: whole brain, 240 min dynamic PET, i.v. bolus
Protocol: Following PET reconstruction and co-registration to an MRI (Fig. 7a), a time–activity curve for the tracer in the whole brain was established (Fig. 7b). […]
divided by the animal weight. A secondary spherical VOI was used to define the contralateral kinetics and the tumour to contralateral SUV ratio was calculated as a function of time. […]
were represented graphically using the GraphPad Prism 6 software (GraphPad Softare Inc).
14. Primate PET Methodology
A baboon (Papio anubis, 21.3 kg) was fasted for up to 12 h prior to imaging. […] Body temperature was maintained using a heated water blanket and monitored by rectal thermometer. Vital signs, including end tidal CO2, SpO2, heart rate, respiration rate and blood pressure, were monitored continuously and recorded at least every 15 min during the study. […]
generated and SUV determined as the concentration in the VOI divided by the injected dose divided […]
exception of the samples collected for metabolite analysis (3.5 mL each), all blood samples were 1 mL each. […] After blood collection, all samples were kept on ice until analysed.
Radioactivity in whole blood and plasma was assessed with a well-type γ-counter using a 400–1400 keV window (Perkin Elmer Wallac 2480, USA). […]

CCN(CC)C(=O)c1nc2ccccc2c(-c2ccccc2)c1C[18F] [[^18F]-AB5186 6]
peak standardised uptake value (SUV) in brain: 1.67
